≈ marks a conversion by molar mass, not a printed value.
Legend:
Type in all cases: functional
[1] = Antioxidant activity assessed as superoxide radical scavenging activity by NBT reduction assay relative to control; set-up: concentration or dose not given beside the values
Aspergillus niger = experiment: Antifungal activity against Aspergillus niger after 3 to 5 days by agar dilution assay
Fusarium oxysporum = experiment: Antifungal activity against Fusarium oxysporum after 3 to 5 days by agar dilution assay
Enterobacter cloacae = experiment: Antibacterial activity against Enterobacter cloacae after 24 hr by agar dilution assay
Aspergillus flavus = experiment: Antifungal activity against Aspergillus flavus after 3 to 5 days by agar dilution assay
Escherichia coli = experiment: Antibacterial activity against Escherichia coli after 24 hr by agar dilution assay
Bacillus thuringiensis = experiment: Antibacterial activity against Bacillus thuringiensis after 24 hr by agar dilution assay
[2] = system: Salmonella enterica subsp. enterica serovar Gallinarum; experiment: Antibacterial activity against Salmonella enterica subsp. enterica serovar Gallinarum after 24 hr by agar dilution assay
Bacillus subtilis = experiment: Antibacterial activity against Bacillus subtilis after 24 hr by agar dilution assay
Siminovitchia fortis = experiment: Antibacterial activity against Bacillus fortis after 24 hr by agar dilution assay

| SMILES | MIC (Aspergillus niger) | MIC (Fusarium oxysporum) | MIC (Enterobacter cloacae) | MIC (Aspergillus flavus) | MIC (Escherichia coli) | MIC (Bacillus thuringiensis) | MIC [2] | MIC (Bacillus subtilis) | MIC (Siminovitchia fortis) | Activity [1] |
| --- | --- | --- | --- | --- | --- | --- | --- | --- | --- | --- |
| COc1ccc2nc(Cl)c(/C=N/NC(=O)C3=C(O)c4ccccc4S(=O)(=O)N3C)cc2c1 | > 100 µg/mL | > 100 µg/mL | > 1000 µg/mL | > 100 µg/mL | > 1000 µg/mL | > 200 µg/mL | > 1000 µg/mL | > 200 µg/mL | > 200 µg/mL | 67.2% |
| CCCOC(=O)c1cc(O)c(O)c(O)c1 |  |  |  |  |  |  |  |  |  | 91.3% |
| CN[C@@H]1[C@H](O[C@H]2[C@H](O[C@H]3[C@H](O)[C@@H](O)[C@H](N=C(N)N)[C@@H](O)[C@@H]3N=C(N)N)O[C@@H](C)[C@]2(O)C=O)O[C@@H](CO)[C@H](O)[C@H]1O [STREPTOMYCIN] | 1 µg/mL (≈ 1.72 µM) | 1 µg/mL (≈ 1.72 µM) | 1 µg/mL (≈ 1.72 µM) | 0.7 µg/mL (≈ 1.2 µM) | 0.7 µg/mL (≈ 1.2 µM) | 3 µg/mL (≈ 5.16 µM) | 1 µg/mL (≈ 1.72 µM) | 1 µg/mL (≈ 1.72 µM) | 0.9 µg/mL (≈ 1.55 µM) |  |
| CC1(C)S[C@@H]2[C@H](NC(=O)[C@H](N)c3ccc(O)cc3)C(=O)N2[C@H]1C(=O)O [AMOXICILLIN] | 2 µg/mL (≈ 5.47 µM) | 2 µg/mL (≈ 5.47 µM) | 2 µg/mL (≈ 5.47 µM) | 2 µg/mL (≈ 5.47 µM) | 2 µg/mL (≈ 5.47 µM) | 6 µg/mL (≈ 16.4 µM) | 2 µg/mL (≈ 5.47 µM) | 3 µg/mL (≈ 8.21 µM) | 2 µg/mL (≈ 5.47 µM) |  |
| COc1ccc2nc(Cl)c(/C=N/NC(=O)C3=C(O)c4ccccc4S(=O)(=O)N3)cc2c1 | > 500 µg/mL | > 500 µg/mL | > 1000 µg/mL | > 500 µg/mL | > 1000 µg/mL | > 100 µg/mL | > 1000 µg/mL | > 100 µg/mL | > 100 µg/mL | 69.7% |
| COc1ccc2cc(/C=N/NC(=O)C3=C(O)c4ccccc4S(=O)(=O)N3C)c(Cl)nc2c1 | > 1000 µg/mL | > 1000 µg/mL | > 1000 µg/mL | > 1000 µg/mL | > 1000 µg/mL | > 100 µg/mL | > 1000 µg/mL | > 100 µg/mL | > 100 µg/mL | 65.1% |
| Cc1ccc2nc(Cl)c(/C=N/NC(=O)C3=C(O)c4ccccc4S(=O)(=O)N3C)cc2c1 | > 1000 µg/mL | > 1000 µg/mL | > 1000 µg/mL | > 1000 µg/mL | > 1000 µg/mL | > 1000 µg/mL | > 1000 µg/mL | > 1000 µg/mL | > 1000 µg/mL | 51.2% |
| COc1ccc2cc(/C=N/NC(=O)C3=C(O)c4ccccc4S(=O)(=O)N3)c(Cl)nc2c1 | > 200 µg/mL | > 200 µg/mL | > 1000 µg/mL | > 200 µg/mL | > 1000 µg/mL | > 100 µg/mL | > 1000 µg/mL | > 1000 µg/mL | > 100 µg/mL | 72.1% |
| Cc1ccc2cc(/C=N/NC(=O)C3=C(O)c4ccccc4S(=O)(=O)N3C)c(Cl)nc2c1 | > 1000 µg/mL | > 1000 µg/mL | > 1000 µg/mL | > 1000 µg/mL | > 1000 µg/mL | > 100 µg/mL | > 1000 µg/mL | > 100 µg/mL | > 100 µg/mL | 51.9% |

Now from value to compound, other results behind:

| MIC (Aspergillus niger) | MIC (Fusarium oxysporum) | MIC (Enterobacter cloacae) | MIC (Aspergillus flavus) | MIC (Escherichia coli) | MIC (Bacillus thuringiensis) | MIC [2] | MIC (Bacillus subtilis) | MIC (Siminovitchia fortis) | SMILES | Activity [1] |
| --- | --- | --- | --- | --- | --- | --- | --- | --- | --- | --- |
| > 1000 µg/mL | > 1000 µg/mL | > 1000 µg/mL | > 1000 µg/mL | > 1000 µg/mL | > 1000 µg/mL | > 1000 µg/mL | > 1000 µg/mL | > 1000 µg/mL | Cc1cccc2cc(/C=N/NC(=O)C3=C(O)c4ccccc4S(=O)(=O)N3C)c(Cl)nc12 | 61.3% |
| > 100 µg/mL | > 100 µg/mL | > 1000 µg/mL | > 100 µg/mL | > 1000 µg/mL | > 100 µg/mL | > 1000 µg/mL | > 100 µg/mL | > 100 µg/mL | Cc1ccc2nc(Cl)c(/C=N/NC(=O)C3=C(O)c4ccccc4S(=O)(=O)N3)cc2c1 | 51.8% |
| > 1000 µg/mL | > 1000 µg/mL | > 1000 µg/mL | > 1000 µg/mL | > 1000 µg/mL | > 1000 µg/mL | > 1000 µg/mL | > 1000 µg/mL | > 1000 µg/mL | Cc1cccc2cc(/C=N/NC(=O)C3=C(O)c4ccccc4S(=O)(=O)N3)c(Cl)nc12 | 52.5% |
| > 1000 µg/mL | > 1000 µg/mL | > 1000 µg/mL | > 1000 µg/mL | > 1000 µg/mL | > 1000 µg/mL | > 1000 µg/mL | > 1000 µg/mL | > 1000 µg/mL | Cc1ccc2cc(/C=N/NC(=O)C3=C(O)c4ccccc4S(=O)(=O)N3)c(Cl)nc2c1 | 49.1% |

Reference: ChEMBL document CHEMBL3045019, “Antioxidant and antimicrobial studies of novel N-(substituted-2-chloroquinolin-3-yl)methylidene-4-hydroxy-2H-1,2-benzothiazine-3-carbohydrazides 1,1-dioxides” (2012)
